Where “and” joins values, the source holds several entries; their conditions need not be identical. Identical values can stand only once.
Legend:
[1] = molecular target: mTOR enzyme (mTOR(1360-2549)+GBL) (Homo sapiens, UniProt P42345); assay: In vitro mTOR kinase assay (TR-FRET); format: biochemical; conditions: 0.25 nM mTOR+GBL, 8 uM ATP; values tied to compounds by order of Table 1; 'x or y' = two alternative values for separated diastereomers of unassigned stereochemistry; read-out: activity level (Ki) in the mTOR kinase assay
In short: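 Compounds were tested in 10-point dose curves from 10 uM top final concentration. The reaction was stopped with 2 nM Tb-anti-p4E-BP1 (T37/T46) antibody plus 10 mM EDTA for 30 minutes, and phospho-4E-BP1 was detected by TR-FRET. Ki apparent was fitted with the Morrison ATP-competitive tight-binding equation.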

PC3 cells = assay: In vitro cell proliferation assay; format: cell-based, human; conditions: values tied to compounds by order of Table 1
In short: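 PC3 (or MDAMB361.1) cells, ~10^3/well, settled overnight, then exposed to compound for 3 days; viability read by CellTiter-Glo luminescence (RLU). Alternatively, 4-day compound exposure followed by Alamar Blue for 6 h, fluorescence 544/590 nm; EC50 from sigmoidal dose-response fit.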

[2] = Homo sapiens, PC-3, with PC3 cells

mTOR enzyme (mTOR(1360-2549)+GBL), sequence (P42345 1360-2549, species assumed): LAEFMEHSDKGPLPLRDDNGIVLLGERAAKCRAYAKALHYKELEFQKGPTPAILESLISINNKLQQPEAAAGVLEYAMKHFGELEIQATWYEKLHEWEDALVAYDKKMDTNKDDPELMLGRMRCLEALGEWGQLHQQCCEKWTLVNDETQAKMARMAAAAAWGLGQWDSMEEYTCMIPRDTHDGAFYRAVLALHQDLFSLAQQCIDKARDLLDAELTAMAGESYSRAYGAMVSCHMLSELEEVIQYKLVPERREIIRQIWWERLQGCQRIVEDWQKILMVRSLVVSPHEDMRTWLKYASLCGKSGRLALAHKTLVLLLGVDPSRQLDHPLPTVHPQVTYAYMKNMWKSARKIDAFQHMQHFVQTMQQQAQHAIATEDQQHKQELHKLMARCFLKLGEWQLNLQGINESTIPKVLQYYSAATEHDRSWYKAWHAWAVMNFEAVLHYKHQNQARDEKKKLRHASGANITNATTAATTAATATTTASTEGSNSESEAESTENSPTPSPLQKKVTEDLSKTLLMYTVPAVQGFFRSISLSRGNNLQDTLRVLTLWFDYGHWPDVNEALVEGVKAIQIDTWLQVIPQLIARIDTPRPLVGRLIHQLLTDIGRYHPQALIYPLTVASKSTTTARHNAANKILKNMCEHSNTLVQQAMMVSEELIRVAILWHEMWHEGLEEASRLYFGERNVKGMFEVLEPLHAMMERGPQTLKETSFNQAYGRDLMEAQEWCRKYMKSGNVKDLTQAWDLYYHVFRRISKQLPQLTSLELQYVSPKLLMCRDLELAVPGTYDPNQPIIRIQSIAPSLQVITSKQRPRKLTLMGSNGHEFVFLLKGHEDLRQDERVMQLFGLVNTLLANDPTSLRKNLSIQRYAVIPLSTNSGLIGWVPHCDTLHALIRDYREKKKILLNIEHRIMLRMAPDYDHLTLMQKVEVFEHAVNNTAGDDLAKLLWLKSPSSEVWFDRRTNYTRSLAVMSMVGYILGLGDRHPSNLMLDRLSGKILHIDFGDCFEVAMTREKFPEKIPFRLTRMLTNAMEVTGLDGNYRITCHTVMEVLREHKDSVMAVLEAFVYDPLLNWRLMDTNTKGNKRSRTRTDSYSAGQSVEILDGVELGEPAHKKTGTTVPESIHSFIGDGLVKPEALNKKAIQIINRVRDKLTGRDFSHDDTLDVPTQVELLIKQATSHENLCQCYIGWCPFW
mTOR enzyme (mTOR(1360-2549)+GBL), sequence (Q9BVC4 whole entry partner, species assumed): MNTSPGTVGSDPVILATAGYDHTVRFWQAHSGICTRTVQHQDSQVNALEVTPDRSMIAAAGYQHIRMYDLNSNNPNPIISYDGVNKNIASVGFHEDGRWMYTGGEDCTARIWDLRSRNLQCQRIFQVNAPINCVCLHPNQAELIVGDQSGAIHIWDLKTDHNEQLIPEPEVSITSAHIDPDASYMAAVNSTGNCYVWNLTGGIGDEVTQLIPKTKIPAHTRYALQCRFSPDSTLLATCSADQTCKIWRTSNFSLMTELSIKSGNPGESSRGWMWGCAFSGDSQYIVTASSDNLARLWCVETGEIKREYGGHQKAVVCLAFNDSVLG

Row | Structure (SMILES) | Ki [1] | EC50 (PC3 cells; [2]) [nM] | EC50 (PC3 cells; with PC3 cells) [nM]
1 | Nc1ccc(-c2nc3c(c(N4[C@@H]5CC[C@H]4COC5)n2)CCCO3)cn1 [Example 132, 5-(4-((1R,5S)-3-oxa-8-azabicyclo[3.2.1]octan-8-yl)-6,7-dihydro-5H-pyrano[2,3-d]pyrimidin-2-yl)pyridin-2-amine] | 32 nM | 585 | –
2 | COCC[C@]1(C)OCc2c(N3CCOC[C@@H]3C)nc(-c3ccc4onc(N)c4c3)nc21 [Example 119 hq^1] | 4300 nM and 1500 nM | 203 | –
3 | CC[C@H]1COCCN1c1nc(-c2ccc(Nc3cccc(=O)[nH]3)cc2)nc2c1COCC2 [Example 5, (S)-6-(4-(4-(3-ethylmorpholino)-7,8-dihydro-5H-pyrano[4,3-d]pyrimidin-2-yl)phenylamino)pyridin-2(1H)-one] | 2 nM | 297 | –
4 | CCNC(=O)Nc1ccc(-c2nc(N3CCOC[C@@H]3C)c3c(n2)[C@@](C)(CCN(C)CC)OC3)cc1 [Example 78 eq (R), 1-ethyl-3-(4-((R)-7-(2-(ethyl(methyl)amino)ethyl)-7-methyl-4-((S)-3-methylmorpholino)-5,7-dihydrofuro[3,4-d]pyrimidin-2-yl)phenyl)urea] | 47 nM | – | 161
5 | C[C@H]1COCCN1c1nc(-c2ccc3oc(N)nc3c2)nc2c1COC2(C)C [Example 123, (S)-5-(7,7-dimethyl-4-(3-methylmorpholino)-5,7-dihydrofuro[3,4-d]pyrimidin-2-yl)benzo[d]oxazol-2-amine] | 43 nM | 302 | –
6 | C[C@H]1COCCN1c1nc(-c2ccc(Nc3cccc(=O)[nH]3)cc2)nc2c1CCC1(CC1)O2 [Example 54, (S)-6-(4-(4′-(3-methylmorpholino)-5′,6′-dihydrospiro[cyclopropane-1,7′-pyrano[2,3-d]pyrimidine]-2′-yl)phenylamino)pyridin-2(1H)-one] | 1 nM | 40 | –
7 | C[C@H]1COCCN1c1nc(-c2ccc(NC(=O)NC[C@@H](O)CO)cc2)nc2c1CCC1(CC1)O2 [Example 69, 1-((R)-2,3-dihydroxypropyl)-3-(4-(4′-((S)-3-methylmorpholino)-5′,6′-dihydrospiro[cyclopropane-1,7′-pyrano[2,3-d]pyrimidine]-2′-yl)phenyl)urea] | 2 nM | 1200 | –
8 | CCNC(=O)Nc1ccc(-c2nc(N3CCOC[C@@H]3C)c3c(n2)C(C)(CCn2ccnc2C)OC3)cc1 (single isomer, unassigned) [Example 81 et (S)] | 7 nM | 402 | –
9 | CCNC(=O)Nc1ccc(-c2nc(N3CCOC[C@@H]3C)c3c(n2)[C@](C)(CC(C)O)OC3)cc1 (stereo partly drawn) [1-ethyl-3-(4-((7S)-7-(2-hydroxypropyl)-7-methyl-4-((S)-3-methylmorpholino)-5,7-dihydrofuro[3,4-d]pyrimidin-2-yl)phenyl)urea] | 2 nM | 25 | –
10 | C[C@H]1COCCN1c1nc(-c2ccc3onc(N)c3c2)nc2c1COC2(C)C [Example 121, (S)-5-(7,7-dimethyl-4-(3-methylmorpholino)-5,7-dihydrofuro[3,4-d]pyrimidin-2-yl)benzo[d]isoxazol-3-amine] | 390 nM | 1300 | –
11 | CC1(C)OCc2c(N3C[C@H]4C[C@@H]3CO4)nc(-c3cnc(N)nc3)nc21 [Example 105, 5-(4-((1R,4R)-2-oxa-5-azabicyclo[2.2.1]heptan-5-yl)-7,7-dimethyl-5,7-dihydrofuro[3,4-d]pyrimidin-2-yl)pyrimidin-2-amine] | 88 nM | 17 | –
12 | CCNC(=O)Nc1ccc(-c2nc3c(c(N4[C@@H]5CC[C@H]4COC5)n2)CCCO3)cc1 [1-(4-(4-((1R,5S)-3-oxa-8-azabicyclo[3.2.1]octan-8-yl)-6,7-dihydro-5H-pyrano[2,3-d]pyrimidin-2-yl)phenyl)-3-ethylurea] | 1 nM | 108 | –
13 | C[C@H]1COCCN1c1nc(-c2ccc(NC(=O)NCCO)cc2)nc2c1COCC2 [Example 24, (S)-1-(2-hydroxyethyl)-3-(4-(4-(3-methylmorpholino)-7,8-dihydro-5H-pyrano[4,3-d]pyrimidin-2-yl)phenyl)urea] | 3 nM | 541 | –
